The first test deals with human PAD4 (Homo sapiens (Human), UniProt Q9UM07). Put plainly: In Vitro PAD4 BAEE Biochemical Assay. The conditions noted are these: human PAD4, BAEE substrate; 5 nM PAD4, 2 mM calcium chloride, 3 mM BAEE; geometric mean of multiple experiments. The method, boiled down:
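Deimination of BAEE substrate (3 mM) measured as ammonia via o-phthalaldehyde–DTT isoindole fluorescence, 405/535 nm. Tag-free bacterially expressed human PAD4 at 5 nM with 2 mM calcium chloride, pH 7.6 MOPS buffer, 30 min compound preincubation then 2 h reaction, both at 25 °C.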
human PAD4, sequence (Q9UM07 2-663): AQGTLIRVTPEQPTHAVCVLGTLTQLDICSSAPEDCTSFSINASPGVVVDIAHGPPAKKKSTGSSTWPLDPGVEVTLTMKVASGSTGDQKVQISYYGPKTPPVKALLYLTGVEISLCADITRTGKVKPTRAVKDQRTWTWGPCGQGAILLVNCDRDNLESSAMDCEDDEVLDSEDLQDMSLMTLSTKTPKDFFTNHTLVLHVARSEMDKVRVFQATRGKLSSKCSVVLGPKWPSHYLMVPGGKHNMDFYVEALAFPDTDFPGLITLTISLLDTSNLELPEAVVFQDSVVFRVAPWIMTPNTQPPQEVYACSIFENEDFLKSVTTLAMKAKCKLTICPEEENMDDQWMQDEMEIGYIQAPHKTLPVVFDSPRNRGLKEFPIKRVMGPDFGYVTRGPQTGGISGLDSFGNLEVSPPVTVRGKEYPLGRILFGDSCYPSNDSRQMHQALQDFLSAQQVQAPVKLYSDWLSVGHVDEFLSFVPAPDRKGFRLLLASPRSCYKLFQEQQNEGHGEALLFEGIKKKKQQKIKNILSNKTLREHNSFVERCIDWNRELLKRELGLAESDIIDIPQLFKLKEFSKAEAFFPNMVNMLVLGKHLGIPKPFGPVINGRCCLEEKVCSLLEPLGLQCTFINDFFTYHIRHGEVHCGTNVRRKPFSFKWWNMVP
`COc1cc(C(=O)N2C[C@H](N)[C@@H]3CC[C@H]2C3)cc2nc(-c3cc4ccc([C@@H](C)NC(=O)c5cnn(C(F)F)c5)nc4n3CC3CC3)n(C)c12` [Example 224, N-((R)-1-(2-(5-((1S,4R,5R)-4-amino-2-azabicycIo[3.2.1]octane-2-carbonyl)-7-methoxy-1-methyl-1H-benzo[d]imidazol-2-yl)-1-(cyclopropylmethyl)-1H-pyrrolo[2,3-b]pyridin-6-yl)ethyl)-1-(difluoromethyl)-1H-pyrazole-4-carboxamide]: the IC50 was 48.1 nM. With `COc1cc(C(=O)N2C[C@H](N)CCN2C)cc2nc(-c3cc4ccc([C@@H](C)NC(=O)c5nc(C)ccc5C)nc4n3CC3CC3)n(C)c12` [Example 176, N-((R)-1-(2-(5-((R)-5-amino-2-methylhexahydropyridazine-1-carbonyl)-7-methoxy-1-methyl-1H-benzo[d]imidazol-2-yl)-1-(cyclopropylmethyl)-1H-pyrrolo[2,3-b]pyridin-6-yl)ethyl)-3,6-dimethylpicolinamide], the IC50 was found to be 231 nM.

In the case of `COc1cc(C(=O)N2C[C@H](N)CC[C@@H]2C)cc2nc(-c3cc4ccc(-c5cccnc5-c5ccccc5)nc4n3CC3CC3)n(C)c12` [Example 283, ((2S,5R)-5-amino-2-methylpiperidin-1-yl)(2-(1-(cyclopropylmethyl)-6-(2-phenylpyridin-3-yl)-1H-pyrrolo[2,3-b]pyridin-2-yl)-7-methoxy-1-methyl-1H-benzo[d]imidazol-5-yl)methanone], the IC50 came to 320 nM.

Regarding `COc1cc(C(=O)N2[C@H]3CC[C@@H]2[C@H](N)C3)cc2nc(-c3cc4ccc([C@@H](C)NC(=O)C(C)(C)OC)cc4n3CC3CC3)n(C)c12` [Example 140, N-((R)-1-(2-(5-((1R,2R,4S)-2-amino-7-azabicyclo[2.2.1]heptane-7-carbonyl)-7-methoxy-1-methyl-1H-benzo[d]imidazol-2-yl)-1-(cyclopropylmethyl)-1H-indol-6-yl)ethyl)-2-methoxy-2-methylpropanamide], the IC50 came to 26.1 nM. Consider `COc1cc(C(=O)N2[C@H]3CC[C@@H]2[C@H](N)C3)cc2nc(-c3cc4ccc([C@@H](C)NC(=O)N5CCCC5)nc4n3CC3CC3)n(C)c12` [Example 234, N-((R)-1-(2-(5-((1R,2R,4S)-2-amino-7-azabicyclo[2.2.1]heptane-7-carbonyl)-7-methoxy-1-methyl-1H-benzo[d]imidazol-2-yl)-1-(cyclopropylmethyl)-1H-pyrrolo[2,3-b]pyridin-6-yl)ethyl)pyrrolidine-1-carboxamide], for which the 50% inhibitory concentration (IC50) was 34.3 nM. The same measure, in the same setting: the value for `COc1cc(C(=O)N2CCC[C@@H](N)C2)cc2nc(-c3cc4ccc(N(C)S(=O)(=O)C(C)C)nc4n3CC3CC3)n(C)c12` [Example 9, (R)-N-(2-(5-(3-aminopiperidine-1-carbonyl)-7-methoxy-1-methyl-1H-benzo[d]imidazol-2-yl)-1-(cyclopropylmethyl)-1H-pyrrolo [2,3-b]pyridin-6-yl)-N-methylpropane-2-sulfonamide] was 238 nM; that for `COC(=O)N(C)c1ccc2cc(-c3nc4cc(C(=O)N5[C@H]6CC[C@@H]5[C@H](N)C6)cc(OC)c4n3C)n(CC3CC3)c2c1` [Example 114, methyl (2-(5-((1R,2R,4S)-2-amino-7-azabicyclo[2.2.1]heptane-7-carbonyl)-7-methoxy-1-methyl-1H-benzo[d]imidazol-2-yl)-1-(cyclopropylmethyl)-1H-indol-6-yl)(methyl)carbamate] was 34.5 nM; that for “2-(1-(cyclopropylmethyl)- 6-((N-(difluoromethyl) methyl)sulfonamido)- 1H-pyrrolo[2,3-b]pyridin-2- yl)-6-fluoro-N-((3S,4S)- 4-fluoropiperidin- 3-yl)-1-methyl-1H- benzo[d]imidazole-5- carboxamide [Example 93]” was 146 nM. Still for that read-out and setting: the value for `COc1cc(C(=O)N2CCC[C@@H](N)[C@H]2C)cc2nc(-c3cc4ccc(N(C)S(C)(=O)=O)nc4n3C3CC3)n(CC3CC3)c12` [Example 49, N-(2-(5-((2R,3R)-3-amino-2-methylpiperidine-1-carbonyl)-1-(cyclopropylmethyl)-7-methoxy-1H-benzo[d]imidazol-2-yl)-1-cyclopropyl-1H-pyrrolo[2,3-b]pyridin-6-yl)-N-methylmethanesulfonamide] was 487 nM; that for `[2H]C([2H])([2H])C(C(=O)N[C@H](C)c1ccc2cc(-c3nc4cc(C(=O)N5C[C@H](N)CCN5C)cc(OC)c4n3C)n(CC3CC3)c2n1)(C([2H])([2H])[2H])C([2H])([2H])[2H]` [Example 189, N-((R)-1-(2-(5-((R)-5-amino-2-methylhexahydropyridazine-1-carbonyl)-7-methoxy-1-methyl-1H-benzo[d]imidazol-2-yl)-1-(cyclopropylmethyl)-1H-pyrrolo[2,3-b]pyridin-6-yl)ethyl)-2,2-bis(methyl-d3)propanamide] was 92.2 nM; that for `COc1cc(C(=O)N2[C@H]3CC[C@@H]2[C@H](N)C3)cc2nc(-c3cc4ccc([C@@H](C)NC(=O)N(C)C)nc4n3CC3CC3)n(C)c12` [Example 235, 3-((R)-1-(2-(5-((1R,2R,4S)-2-amino-7-azabicyclo[2.2.1]heptane-7-carbonyl)-7-methoxy-1-methyl-1H-benzo[d]imidazol-2-yl)-1-(cyclopropylmethyl)-1H-pyrrolo[2,3-b]pyridin-6-yl)ethyl)-1,1-dimethylurea] was 40.2 nM.

Staying with this test, now noted: recombinant PAD4 5 nM, 2 mM calcium chloride, 3 mM BAEE substrate; geometric mean of multiple experiments.
For the molecule `C[C@@H](NC(=O)C1(C#N)CC1)c1ccc2cc(-c3nc4cc(C(=O)N5C[C@H](N)[C@@H]6CC[C@H]5C6)cc(F)c4n3C3CC3)n(CC3CC3)c2n1` [Example 303, N-((R)-1-(2-(5-((1S,4R,5R)-4-amino-2-azabicyclo[3.2.1]octane-2-carbonyl)-1-cyclopropyl-7-fluoro-1H-benzo[d]imidazol-2-yl)-1-(cyclopropylmethyl)-1H-pyrrolo[2,3-b]pyridin-6-yl)ethyl)-1-cyanocyclopropane-1-carboxamide], the IC50 worked out at 84.1 nM. On the same count and under the same terms, the value for `COc1cc(C(=O)N2C[C@H](N)[C@@H]3CC[C@H]2C3)cc2nc(-c3cc4ccc([C@@H](C)NC(=O)[C@H]5CC5(F)F)nc4n3CC3CC3)n(C)c12` [Example 312, (R)-N-((R)-1-(2-(5-((1S,4R,5R)-4-amino-2-azabicyclo[3.2.1]octane-2-carbonyl)-7-methoxy-1-methyl-1H-benzo[d]imidazol-2-yl)-1-(cyclopropylmethyl)-1H-pyrrolo[2,3-b]pyridin-6-yl)ethyl)-2,2-difluorocyclopropane-1-carboxamide] was 55.9 nM; that for `COc1cc(C(=O)N2C[C@H](N)[C@@H]3CC[C@H]2C3)cc2nc(-c3cc4ccc([C@@H](C)NC(=O)c5ccccc5C(F)(F)F)nc4n3CC3CC3)n(C)c12` [Example 292, N-((R)-1-(2-(5-((1S,4R,5R)-4-amino-2-azabicyclo [3.2.1]octane-2-carbonyl)-7-methoxy-1-methyl-1H-benzo [d]imidazol-2-yl)-1-(cyclopropylmethyl)-1H-pyrrolo[2,3-b]pyridin-6-yl)ethyl)-2-(trifluoromethyl) benzamide] was 128 nM; that for `COc1cc(C(=O)N2C[C@H](N)[C@@H]3CC[C@H]2C3)cc2nc(-c3cc4ccc([C@@H](C)NC(=O)[C@]5(C)CC5(F)F)nc4n3CC3CC3)n(C)c12` [Example 331, (S)-N-((R)-1-(2-(5-((1S,4R,5R)-4-amino-2-azabicyclo[3.2.1]octane-2-carbonyl)-7-methoxy-1-methyl-1H-benzo[d]imidazol-2-yl)-1-(cyclopropylmethyl)-1H-pyrrolo[2,3-b]pyridin-6-yl)ethyl)-2,2-difluoro-1-methylcyclopropane-1-carboxamide] was 71 nM. On the same count and under the same terms, the value for `COc1cc(C(=O)N2C[C@H](N)[C@@H]3CC[C@H]2C3)cc2nc(-c3cc4ccc([C@@H](C)NC(=O)C(C)(C)C(F)F)nc4n3CC3CC3)n(C)c12` [Example 323, N-((R)-1-(2-(5-((1S,4R,5R)-4-amino-2-azabicyclo[3.2.1]octane-2-carbonyl)-7-methoxy-1-methyl-1H-benzo[d]imidazol-2-yl)-1-(cyclopropylmethyl)-1H-pyrrolo[2,3-b]pyridin-6-yl)ethyl)-3,3-difluoro-2,2-dimethylpropanamide] was 84.6 nM; that for `COc1cc(C(=O)N2C[C@H](N)[C@@H]3CC[C@H]2C3)cc2nc(-c3cc4ccc([C@@H](C)NC(=O)c5cccnc5C(F)F)nc4n3CC3CC3)n(C)c12` [Example 305, N-((R)-1-(2-(5-((1S,4R,5R)-4-amino-2-azabicyclo[3.2.1]octane-2-carbonyl)-7-methoxy-1-methyl-1H-benzo[d]imidazol-2-yl)-1-(cyclopropylmethyl)-1H-pyrrolo[2,3-b]pyridin-6-yl)ethyl)-2-(difluoromethyl)nicotinamide] was 72.7 nM. The same measure, in the same setting: the value for `COc1cc(C(=O)N2C[C@H](N)[C@@H]3CC[C@H]2C3)cc2nc(-c3cc4ccc([C@@H](C)NC(=O)c5ccc(C(C)(C)O)nc5)nc4n3CC3CC3)n(C)c12` [Example 300, N-((R)-1-(2-(5-((1S,4R,5R)-4-amino-2-azabicyclo[3.2.1]octane-2-carbonyl)-7-methoxy-1-methyl-1H-benzo[d]imidazol-2-yl)-1-(cyclopropylmethyl)-1H-pyrrolo[2,3-b]pyridin-6-yl)ethyl)-6-(2-hydroxypropan-2-yl)nicotinamide] was 72 nM; that for `COc1cc(C(=O)N2C[C@H](N)[C@@H]3CC[C@H]2C3)cc2nc(-c3cc4ccc([C@@H](C)NC(=O)c5c(F)cccc5F)nc4n3CC3CC3)n(C)c12` [Example 295, N-((R)-1-(2-(5-((1S,4R,5R)-4-amino-2-azabicyclo[3.2.1]octane-2-carbonyl)-7-methoxy-1-methyl-1H-benzo[d]imidazol-2-yl)-1-(cyclopropylmethyl)-1H-pyrrolo[2,3-b]pyridin-6-yl)ethyl)-2,6-difluorobenzamide] was 65.5 nM.

Broadly, the IC50 is the point on the concentration scale where inhibition reaches its midpoint.

The record behind these values is US11878965B2, “Inhibitors of peptidylarginine deiminases” (Gilead Sciences, Inc., priority 2020, dated 2024).
